We go through one molecule from PMC6704710, “Preclinical evaluation of 3D185, a novel potent inhibitor of FGFR1/2/3 and CSF-1R, in FGFR-dependent and macrophage-dominant cancer models” (Journal of Experimental & Clinical Cancer Research : CR, 2019).

Common to all, as to experiment: Eurofins kinase panel
What all share (format): biochemical
What all share (details): read-out: Inhibition rate (%)

The target of one assay is T1, CDKL3(h) (Homo sapiens, UniProt Q8IVW4).
T1 construct: purchased Eurofins (KinaseProfiler)
T1 sequence (Q8IVW4 whole entry): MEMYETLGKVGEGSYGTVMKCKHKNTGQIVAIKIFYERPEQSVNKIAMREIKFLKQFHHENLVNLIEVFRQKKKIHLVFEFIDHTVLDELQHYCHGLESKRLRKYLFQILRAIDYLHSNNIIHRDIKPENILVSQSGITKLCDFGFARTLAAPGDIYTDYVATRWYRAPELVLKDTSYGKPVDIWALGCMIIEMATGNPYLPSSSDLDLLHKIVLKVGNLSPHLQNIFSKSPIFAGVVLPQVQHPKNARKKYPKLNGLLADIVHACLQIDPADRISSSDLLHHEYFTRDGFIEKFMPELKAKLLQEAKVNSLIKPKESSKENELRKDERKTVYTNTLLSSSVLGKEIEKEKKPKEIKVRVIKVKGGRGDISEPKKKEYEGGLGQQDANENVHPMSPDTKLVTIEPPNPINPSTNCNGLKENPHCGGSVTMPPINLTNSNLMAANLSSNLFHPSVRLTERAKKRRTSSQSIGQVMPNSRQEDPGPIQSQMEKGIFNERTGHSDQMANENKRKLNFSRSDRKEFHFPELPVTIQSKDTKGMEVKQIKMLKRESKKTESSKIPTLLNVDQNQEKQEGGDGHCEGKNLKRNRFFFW

For a further assay, the target named is T2, PDK1(h) (Homo sapiens, UniProt O15530).
T2 construct: purchased Eurofins (KinaseProfiler)
T2 sequence (O15530 1-556): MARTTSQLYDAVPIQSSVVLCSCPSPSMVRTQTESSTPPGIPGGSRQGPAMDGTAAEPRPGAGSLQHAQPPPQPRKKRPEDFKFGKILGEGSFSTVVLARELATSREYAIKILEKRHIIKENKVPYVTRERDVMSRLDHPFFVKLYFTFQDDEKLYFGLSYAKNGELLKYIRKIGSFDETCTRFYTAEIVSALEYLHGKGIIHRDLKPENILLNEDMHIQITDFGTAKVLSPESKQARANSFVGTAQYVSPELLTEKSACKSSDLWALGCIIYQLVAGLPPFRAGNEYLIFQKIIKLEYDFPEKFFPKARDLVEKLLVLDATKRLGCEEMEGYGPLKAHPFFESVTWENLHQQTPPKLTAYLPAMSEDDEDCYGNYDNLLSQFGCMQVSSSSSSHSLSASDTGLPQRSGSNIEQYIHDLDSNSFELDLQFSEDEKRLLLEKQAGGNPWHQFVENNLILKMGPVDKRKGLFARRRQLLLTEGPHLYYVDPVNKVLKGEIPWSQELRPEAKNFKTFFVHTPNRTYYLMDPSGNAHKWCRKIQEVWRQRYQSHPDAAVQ

For the next assay, the target named is T3, MARK1(h) (Homo sapiens, UniProt Q9P0L2).
T3 construct: purchased Eurofins (KinaseProfiler)
T3 sequence (Q9P0L2 whole entry): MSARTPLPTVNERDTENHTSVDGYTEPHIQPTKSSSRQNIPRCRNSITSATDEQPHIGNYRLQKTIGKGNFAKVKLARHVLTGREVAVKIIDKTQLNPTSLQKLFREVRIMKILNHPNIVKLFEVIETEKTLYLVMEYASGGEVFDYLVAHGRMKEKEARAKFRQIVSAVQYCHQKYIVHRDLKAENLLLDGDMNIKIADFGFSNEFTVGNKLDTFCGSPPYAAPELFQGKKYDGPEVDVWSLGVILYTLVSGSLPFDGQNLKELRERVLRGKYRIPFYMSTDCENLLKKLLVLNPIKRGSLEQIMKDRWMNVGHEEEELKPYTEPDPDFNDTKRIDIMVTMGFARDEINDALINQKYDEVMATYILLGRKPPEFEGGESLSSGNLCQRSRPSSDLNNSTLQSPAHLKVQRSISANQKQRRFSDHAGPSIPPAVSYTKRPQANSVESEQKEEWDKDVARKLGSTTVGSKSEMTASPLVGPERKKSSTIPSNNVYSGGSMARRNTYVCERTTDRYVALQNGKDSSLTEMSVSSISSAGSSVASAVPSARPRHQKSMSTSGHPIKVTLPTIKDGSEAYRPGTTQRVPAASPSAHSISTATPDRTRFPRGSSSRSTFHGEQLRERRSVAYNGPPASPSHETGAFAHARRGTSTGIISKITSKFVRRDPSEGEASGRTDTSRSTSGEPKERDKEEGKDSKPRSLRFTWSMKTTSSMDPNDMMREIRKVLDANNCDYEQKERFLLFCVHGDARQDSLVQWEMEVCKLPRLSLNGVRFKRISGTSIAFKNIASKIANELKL

The target in the next assay is T4, PRKG2(h) (Homo sapiens, UniProt Q13237).
T4 construct: purchased Eurofins (KinaseProfiler)
T4 sequence (Q13237 1-762): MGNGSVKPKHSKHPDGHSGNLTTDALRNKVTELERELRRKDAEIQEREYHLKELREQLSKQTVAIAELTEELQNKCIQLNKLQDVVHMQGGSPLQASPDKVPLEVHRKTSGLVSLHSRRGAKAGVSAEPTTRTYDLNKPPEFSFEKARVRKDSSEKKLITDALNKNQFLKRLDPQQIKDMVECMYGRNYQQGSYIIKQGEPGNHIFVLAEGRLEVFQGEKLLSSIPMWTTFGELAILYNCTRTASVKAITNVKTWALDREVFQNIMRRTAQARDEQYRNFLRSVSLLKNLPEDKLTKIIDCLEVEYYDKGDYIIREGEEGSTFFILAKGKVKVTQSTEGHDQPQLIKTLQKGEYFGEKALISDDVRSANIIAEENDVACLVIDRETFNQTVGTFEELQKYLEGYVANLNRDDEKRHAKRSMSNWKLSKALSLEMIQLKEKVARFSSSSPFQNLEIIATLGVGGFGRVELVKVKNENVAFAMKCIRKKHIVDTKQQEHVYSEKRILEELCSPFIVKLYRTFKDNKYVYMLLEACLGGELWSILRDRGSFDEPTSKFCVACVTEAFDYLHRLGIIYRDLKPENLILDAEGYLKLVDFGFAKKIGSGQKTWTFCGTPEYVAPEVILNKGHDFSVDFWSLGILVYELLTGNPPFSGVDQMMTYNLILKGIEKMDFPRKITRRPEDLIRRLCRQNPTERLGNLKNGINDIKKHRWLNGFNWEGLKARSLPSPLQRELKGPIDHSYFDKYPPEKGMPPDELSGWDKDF

Another assay addresses T5, PKCγ(h) (Homo sapiens, UniProt P05129).
T5 construct: purchased Eurofins (KinaseProfiler)

In another assay the target is T6, Rsk4(h) (Homo sapiens, UniProt Q9UK32).
T6 construct: purchased Eurofins (KinaseProfiler)
T6 sequence (Q9UK32 whole entry): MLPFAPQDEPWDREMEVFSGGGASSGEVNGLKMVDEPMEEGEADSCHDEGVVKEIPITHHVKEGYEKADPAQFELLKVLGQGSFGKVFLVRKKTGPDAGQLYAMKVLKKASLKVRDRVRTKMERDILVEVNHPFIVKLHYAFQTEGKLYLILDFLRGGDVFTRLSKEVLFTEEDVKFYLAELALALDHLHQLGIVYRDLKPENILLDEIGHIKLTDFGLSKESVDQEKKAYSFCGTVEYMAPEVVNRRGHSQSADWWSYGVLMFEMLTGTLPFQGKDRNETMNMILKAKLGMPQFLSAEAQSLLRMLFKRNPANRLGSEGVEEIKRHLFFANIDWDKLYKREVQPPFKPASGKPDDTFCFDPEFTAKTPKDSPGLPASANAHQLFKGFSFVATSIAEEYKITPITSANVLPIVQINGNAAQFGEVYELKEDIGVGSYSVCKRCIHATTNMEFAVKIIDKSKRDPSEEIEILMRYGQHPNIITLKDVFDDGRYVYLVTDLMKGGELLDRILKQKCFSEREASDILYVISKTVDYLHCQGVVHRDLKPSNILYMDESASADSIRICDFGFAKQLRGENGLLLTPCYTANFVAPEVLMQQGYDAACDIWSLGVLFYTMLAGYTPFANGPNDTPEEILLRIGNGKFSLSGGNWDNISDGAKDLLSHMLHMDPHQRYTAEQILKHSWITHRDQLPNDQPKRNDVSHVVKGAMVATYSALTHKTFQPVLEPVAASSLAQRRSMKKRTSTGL

Another assay deals with T7, DRAK2(h) (Homo sapiens, UniProt O94768).
T7 construct: purchased Eurofins (KinaseProfiler)
T7 sequence (O94768 1-372): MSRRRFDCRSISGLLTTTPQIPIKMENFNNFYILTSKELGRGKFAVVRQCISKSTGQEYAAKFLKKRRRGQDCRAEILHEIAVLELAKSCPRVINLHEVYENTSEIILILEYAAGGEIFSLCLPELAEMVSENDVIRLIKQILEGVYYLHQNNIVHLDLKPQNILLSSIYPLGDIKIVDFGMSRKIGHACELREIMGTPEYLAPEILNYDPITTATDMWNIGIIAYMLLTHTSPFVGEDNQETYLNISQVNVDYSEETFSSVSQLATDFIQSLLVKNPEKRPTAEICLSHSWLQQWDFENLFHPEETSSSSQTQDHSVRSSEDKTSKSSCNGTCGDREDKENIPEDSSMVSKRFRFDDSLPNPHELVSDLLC

A further assay deals with T8, PKAcβ(h) (Homo sapiens, UniProt P22694).
T8 construct: purchased Eurofins (KinaseProfiler)

What is called inhibition is the change of the read-out against control, counted positive when it falls. As to `COc1cc(OC)c(Cl)c(-c2ccc3c(NC(=O)c4ccc(N5CCNC(C)(C)C5)cc4)n[nH]c3n2)c1Cl` [3D185], the inhibition at 0.01 µM was -12% at CDKL3(h) (10 nM); -5% on PDK1(h) (10 nM); -11% at MARK1(h) (10 nM); 1% at PRKG2(h) (10 nM); -4% on PKCγ(h) (10 nM); 0% at Rsk4(h) (10 nM). The inhibition at 0.01 µM at DRAK2(h) (10 nM) is -5%; on PKAcβ(h) (10 nM) it was -6%. The inhibition at 0.1 µM is -17% on CDKL3(h) (100 nM); -14% on PDK1(h) (100 nM); -13% at MARK1(h) (100 nM); 3% on PRKG2(h) (100 nM); -8% on PKCγ(h) (100 nM); 6% at Rsk4(h) (100 nM). Also, the inhibition at 0.1 µM is -13% at DRAK2(h) (100 nM) and -11% at PKAcβ(h) (100 nM). Besides, the inhibition at 1 µM was -9% at CDKL3(h) (1000 nM); -4% on PDK1(h) (1000 nM); -25% on MARK1(h) (1000 nM); 3% at PRKG2(h) (1000 nM); -1% on PKCγ(h) (1000 nM); 19% on Rsk4(h) (1000 nM). Also, the inhibition at 1 µM is 3% on DRAK2(h) (1000 nM) and -11% at PKAcβ(h) (1000 nM).
